What was measured:
Type in all cases: in vivo, human
[1] = tested on: acne papule biopsies, Diseases or Functions Annotation; experiment: Ingenuity Pathway Analysis, diseases or functions activation of the trifarotene signature; settings: trifarotene treated area (day 27) vs papule before treatment
Protocol: Functional and network analysis were generated with the Ingenuity Pathway Analysis software (QIAGEN® Inc., qiagenbioinformatics.com/products/ingenuity-pathway-analysis), and with Open Targets (opentargets.org/). IPA was used to identify canonical pathways, diseases and functions, and gene networks related to differentially expressed genes in acne lesions and post-lesional skin after treatment with trifarotene or vehicle. In addition, gene set enrichment analysis was performed with the R package FGSEA (version 1.12.0) using the hallmark and reactome gene sets. A comparative analysis was performed to identify expression patterns: For this analysis, the following comparisons were made to develop characteristic expression patterns: (a) Papule before treatment vs non-involved skin was used to derive an acne signature; (b) Resolved papule zone after treated with vehicle vs papule before treatment was used to derive signature of spontaneously resolved papule; and (c) Resolved papule zone after treatment with trifarotene vs papule before treatment to determine trifarotene treatment signature. […]

[2] = tested on: cell types in skin biopsies (macrophage subsets, B cells, melanocytes, venular cells); experiment: Cell type scoring (cell-type gene signature expression scores in biopsies)
Source text: Single-Cell Analysis and Cell Marker Definition: Single-cell RNAseq data from Hughes et al. was used to determine the major cell types present in skin biopsies and the associated cell markers. Acne and normal samples from GSE150672 were downloaded and analyzed using the Seurat package. Data were normalized, scaled, and log-transformed. The most variable genes were selected based on their expression and dispersion. To reduce dimensionality, principal component analysis (PCA) was applied. The first eight principal components were used to cluster the cells using the graph-based approach FindClusters function in Seurat, with a resolution parameter of 0.4. Graphical representation of cell clusters was achieved using UMAP. A combination of known markers and differentially expressed genes was used to characterize cell clusters. Major cell type markers retained for scoring analysis included: B cells: MS4A1, CD79A; Fibroblasts: DCN, COL6A2, APOD, CFD, IGFBP5, COL1A2, COL1A1, COL3A1; Keratinocytes: KRT5, KRT1, KRT14, KRT15, S100A2, KRT6A, HOPX, KRT10, DSP; Langerhans cells: CD207; Mast cells: CPA3, IL1RL1, CTSG, TPSAB1, GATA2; Melanocytes: MLANA, MITF, PMEL, DCT; Myeloid cells: CD68, CTSS; Schwann cells: SCN7A; T cells: CD3D, TRBC2, IL7R, PTPRC, CXCR4; Venular cells: SELE, CD93, TM4SF1, A2M, RCAN1; Vascular smooth muscle cells (VSMC): TAGLN, RGS5, MYH11, ACTA2, MYL9.
Macrophage Gene Signatures: Gene markers specific to each class of macrophage were derived from the literature. For M0, M1 and M2 macrophages, the markers described in Newman et al. (Robust enumeration of cell subsets from tissue expression profiles, Nat Methods, 12:453-7, 2015) were used. For SPP1 activated macrophages, the markers from Morse et al. (Proliferating SPP1/MERTK-expressing macrophages in idiopathic pulmonary fibrosis. Eur Respir J., 54:1802441) were used. Final markers were as listed. M0 macrophage: ACP5, BHLHE41, C5AR1, CCDC102B, CCL22, CCL7, COL8A2, CSF1, CXCL3, CXCL5, CYP27A1, DCSTAMP, GPC4, HK3, IGSF6, MARCO, MMP9, NCF2, PLA2G7, PPBP, QPCT, SLAMF8, SLC12A8, TNFSF14, VNN1. M1 macrophage: ACHE, APOBEC3A, APOL3, APOL6, ARRB1, CCL19, CCL5, CCR7, CD38, CD40, CHI3L1, CXCL10, CXCL11, CXCL13, CXCL9, CYP27B1, DHX58, HESX1, IDO1, IFI44L, IL2RA, KIAA0754, KYNU, LAG3, LAMP3, LILRA3, LILRB2, NOD2, PLA1A, PTGIR, RASSF4, RSAD2, SLAMFI, SLC2A6, SOCS1, TLR7, TNFAIP6, TNIP3, TRPM4. M2 macrophage: AIF1, ALOX15, CCL13, CCL14, CCL23, CD209, CD4, CFP, CLEC10A, CLEC4A, CRYBB1, FES, FRMD4A, FZD2, GSTT1, HRH1, HTR2B, MS4A6A, NME8, NPL, P2RY13, PDCD1LG2, RENBP, WNT5B. SPP1 macrophage: MERTK, CD14, SPP1, CD68, LYZ.
Cell Type Scoring: Each cell type gene signature was used to define a cell type average gene expression in each of our clinical study samples, calculated as the average of the log 2 expression values of these markers. Boxplots were used to visualize the distribution of cell type gene expression scores between clinical groups. Statistical significance was assessed using Wilcoxon rank sum test. Graphs were generated using the ggpubr data visualization library.

[3] = tested on: acne papule biopsies, gene sets; experiment: Gene set enrichment analysis (FGSEA, hallmark and reactome gene sets); settings: inflammatory response, TNFA signaling via NF-kB, neutrophil degranulation, chemokines and receptors; collagen degradation, extracellular matrix degradation/organization
Protocol: Functional and network analysis were generated with the Ingenuity Pathway Analysis software (QIAGEN® Inc., qiagenbioinformatics.com/products/ingenuity-pathway-analysis), and with Open Targets (opentargets.org/). IPA was used to identify canonical pathways, diseases and functions, and gene networks related to differentially expressed genes in acne lesions and post-lesional skin after treatment with trifarotene or vehicle. In addition, gene set enrichment analysis was performed with the R package FGSEA (version 1.12.0) using the hallmark and reactome gene sets.

CC(C)(C)c1cc(-c2cc(-c3ccc(C(=O)O)cc3)ccc2OCCO)ccc1N1CCCC1 [Trifarotene, 3″-tert-Butyl-4′-(2-hydroxy-ethoxy)-4″-pyrrolidin-1-yl-[1,1′,3′,1″ ]terphenyl-4-carboxylic acid]
Activation z.score Trifarotene signature: Flux of Ca2+ [1]: −2.838
venular cells ([2]; following trifarotene treatment): trend toward a decrease
M0, M1 and M2 macrophages ([2]; spontaneously resolved vs trifarotene treated biopsies): not significantly different
increase in melanocytes ([2]; trifarotene treated vs spontaneously resolved acne lesions): greater in the trifarotene treated samples
B cell frequencies ([2]; trifarotene treatment vs. spontaneous resolution): greater impact in reducing B cell frequencies
frequencies of SPP1+ macrophages ([2]; trifarotene treatment vs. spontaneously resolved acne papules, P=0.040): significantly reduced
gene set enrichment: inflammatory modules and tissue remodeling gene sets [3]: downregulates

Reference: US20240058268A1, “METHODS OF TREATING SKIN DISORDERS” (priority 2021, published 2024)
